Results reported in patent US20240083949A1, “CELL PENETRATING PEPTIDE COMPOSITIONS AND METHODS THEREOF” (The Regents of the University of California, priority 2022, published 2024).
Entries after “also recorded” stand apart in the source; their conditions may differ. Positions of bridges follow the written chain, without caps; N, C: chain ends. Non-standard residues stand in square brackets, D forms with d. Lys(N3) = [N-]=[N+]=NCCCC[C@H](N)C(=O)O; Pra = C#CC[C@H](N)C(=O)O

Assays:
U87 cells [1] = test: Endocytosis inhibitors treatment, RB-EPP6 uptake by flow cytometry; assay type: cell-based, human; details: 500 nM RB-EPP6, flow cytometry
Experimental: (§1) Flow cytometry experiments. To measure the RB signal intensity, a NovoCyte flow cytometer (NovoExpress) was used. Quantification of fluorescence intensity in each condition was performed using Novoxpress software. Fifty thousand cells were analyzed for each condition. A green, fluorescent dye used in DNA staining, YOYO was included in all the flow cytometry experiments, serving as a cell live/dead indicator. For the YOYO only group, the cells were treated with trypsin for 5-10 min. After that, cells were fixed in a 1.5 ml centrifuge tube using 4% paraformaldehyde at room temperature for 15 min. Subsequently, fixed cells were washed with PBS once and was permeabilized using 90% cold MeOH on ice for 15 min. Then, cells were incubated with YOYO in phenol-free medium. After half an hour, cells were centrifuged to get rid of YOYO solution and resuspended in fresh phenol-free medium before doing flow cytometry.
Endocytosis inhibitors treatment. U87 Cells were incubated with different endocytosis inhibitors for 1 h respectively. Afterwards, old medium was replaced with medium containing 500 nM RB-EPP 6. After 1 h, a trypsin-EDTA solution (0.05%, Sigma) was added to detach the cells. The cells were collected by centrifugation. Fresh phenol-free medium was added to each condition. Once resuspended, cells were filtered into glass tubes before flow cytometry.

FIBCD1 = molecular target: T1, FIBCD1 (Homo sapiens, UniProt Q8N539); test: FIBCD1 competition assay; assay type: cell-based; details: U87 cells, 500 nM RB-EPP6, flow cytometry
T1 construct: endogenous in cells; host or cells: U87 human glioblastoma cells
T1 sequence (Q8N539 1-461): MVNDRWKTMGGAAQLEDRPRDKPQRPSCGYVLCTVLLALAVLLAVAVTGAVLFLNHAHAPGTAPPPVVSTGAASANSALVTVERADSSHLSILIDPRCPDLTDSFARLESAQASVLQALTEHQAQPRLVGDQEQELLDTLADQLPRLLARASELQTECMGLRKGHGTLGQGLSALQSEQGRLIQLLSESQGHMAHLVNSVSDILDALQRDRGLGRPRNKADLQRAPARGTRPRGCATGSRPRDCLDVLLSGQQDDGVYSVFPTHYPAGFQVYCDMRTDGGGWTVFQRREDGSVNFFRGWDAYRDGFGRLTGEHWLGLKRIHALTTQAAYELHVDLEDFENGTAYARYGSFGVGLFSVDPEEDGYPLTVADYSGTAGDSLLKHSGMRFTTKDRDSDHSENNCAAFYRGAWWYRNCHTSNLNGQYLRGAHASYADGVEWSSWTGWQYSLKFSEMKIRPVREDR
Experimental: as §1
FIBCD1 competition assay. U87 cells were incubated with 500 nM RB-EPP 6 and YOYO, together with FIBCD1 ligands, sodium acetate (SA) at 3.1 mM (1×) and acetylmannosamine (AMA) at 1.6 mM (1×) respectively. After 1 h, trypsin was added to detach the cells. Cell pallets were collected by centrifugation. Fresh phenol-free medium was added to each condition. Once resuspended, cells were filtered into glass tubes before flow cytometry.

U87 cells [2] = test: Confocal imaging of Dye-EPP uptake in U87 cells; assay type: cell-based, human; details: for ability to enter the cells (intracellular fluorescence): RB-tagged EPPs, ranking among EPP1-7
Experimental: Confocal Imaging experiments. To image the cells, a Zeiss 880 inverted confocal laser scanning microscope (Carl Zeiss, Germany) was used. Image acquisition and analyses were carried out using the manufacturer's software (ZEN, Carl Zeiss). Quantification of fluorescence intensity in single cells was performed using Fiji software.
Dye-EPP incubation. For general incubation, 300 k U87 cells were seeded in full medium containing 10% FBS and 1% PS in a 35×10 mm petri dish. The cells were incubated overnight in full medium. Stock solution of Dye-EPPs were made in DMSO to reach a concentration of 500 μM. Fresh cell culture medium was used to dilute the stock solution to 500 nM and replace the old medium on day 2. Cells were incubated with RB-EPPs for different time periods, followed by a one-time wash with phenol-free fresh culture medium before measurements.
Concentration gradient experiment. U87 Cells were incubated with RB-EPP 6 at different concentrations (20 nM, 200 nM, 2 μM, 20 μM, 50 μM and 100 μM). After wash with fresh medium once cells were examined by confocal imaging.

[3] = Octanol-water partition assay; assay type: physicochemical
Experimental: Octanol-water partition assay. For each RB-EPP, pre-mix 250 μl of octanol with 250 μl of water in a 1.5 ml centrifuge tube. 2 μl of RB-EPP was added to the solution at the concentration of 500 μM. After vortex the mixture, centrifuge at the highest speed for 10 min to separate the octanol and water phases. Samples were collected from both phases and quantified by the Analytical HPLC separately.

a = test: a
Description: Table printed on a drawing sheet, FIGURES 7A-7B
The patent's description of the figure: FIGS. 7A-7B. (FIG. 7a) PAMPA assay results of EPPs.
First reader's note: Panel a of the sheet; per the description these are PAMPA permeability results, and panel b is a bar graph of the same values.

different cell lines = test: RB-EPP6 uptake in different cell lines (confocal imaging); assay type: cell-based
Description: Cell lines and cell culture. The human glioblastoma cell line (U87) was gifted from Prof. Wei Wei (Institute For Systems Biology, Seattle). The human monocytic leukemia cell line (THP-1) and the human T-cell leukemia cell line (Jurkat) were purchased from ATCC. The human embryonic kidney cell line (HEK-293T), the human osteosarcoma cell line (U2OS), the human breast cancer cell line (MCF-7), the human metastatic melanoma cell lines (IGR-37, IGR-39, WM266-4 and WM115), the human cervical carcinoma cell line (HeLa), and the human myelogenous leukemia cell line (K562) were gifted from Prof. Yinsheng Wang (UC Riverside). The non-tumorigenic epithelial cell line (MCF 10A) and the human breast adenocarcinoma cell line (MDA-MB-231) were gifted from Prof. Wenwan Zhong (UC Riverside). The canine epithelial kidney cell line (MDCK) and the African green monkey kidney cell line (Vero) were gifted from Prof. Hai Rong (UC Riverside). The human colon carcinoma cell line (HCT116) was gifted from Prof. Xuan Liu (UC Riverside). The human liver carcinoma cell line (HEPG2), the rat liver cell line (MCA7777) and the mouse sarcoma cell line (J774A.1) were gifted from Prof. Joseph Genereux (UC Riverside).
Confocal Imaging experiments. […] Quantification of fluorescence intensity in single cells was performed using Fiji software. […]

U87 cells [4] = test: Heparin binding assay, RB-EPP6 uptake by flow cytometry; assay type: cell-based, human; details: heparin 10-200 μg/ml
Experimental: as §1, with “cytometry. Heparin binding assay. […] A trypsin-EDTA solution (0.05%, Sigma) was added to detach the cells. The cells were collected by centrifugation. Fresh phenol-free medium was added to each condition. Once resuspended, cells were filtered into glass tubes before flow cytometry.” for “cytometry.”

Compound	effect of inhibitor on RB-EPP6 uptake (U87 cells [1])	Pe (a) [×10⁻⁶ cm/s]	also measured
O=C(N/N=C/c1ccc(O)c(O)c1)c1cc2ccccc2cc1O [Dynasore]	almost completely suppressed	–	–
O=C1NC(=NS(=O)(=O)c2cccc3ccccc23)S/C1=C\c1ccc(Br)cc1 [Pitstop 2]	did not affect the uptake	–	–
CC(=O)NC1C(O)OC(CO)C(O)C1O (stereo not drawn) [acetylmannosamine]	–	–	effect of FIBCD1 ligand on RB-EPP6 uptake (FIBCD1): inhibit RB-EPP6 uptake in a concentration-dependent manner
C=C1[C@@H](C)[C@H]2[C@H](Cc3ccccc3)NC(=O)[C@]23[C@H](OC(C)=O)/C=C/[C@@](C)(O)C(=O)[C@@H](C)C/C=C/[C@H]3[C@@H]1O [cytochalasin D]	significantly decreased	–	–
CCCCC[C@@H](O)[C@H]1C(=O)O[C@H](C)[C@@H](O)/C=C/C=C/C=C/C=C/C=C(\C)[C@@H](O)C[C@H](O)C[C@H](O)C[C@H](O)C[C@H](O)C[C@H](O)C[C@@H]1O [filipin]	did not inhibit	–	–
c1ccc2c(c1)Nc1ccccc1S2 [phenothazine]	did not affect the uptake	–	–
RB-cy(YTYYT) [RB-EPP3]	–	–	ability to enter the cells (intracellular fluorescence) (U87 cells [2]; U87 cells, confocal imaging): worst; hydrophobicity (octanol partitioning) [3]: most hydrophobic
c[Pra-Ser-Tyr-Tyr-Ser-Tyr-Az4] ([Pra]SYYSY[Lys(N3)]; triazole N-C) [EPP7]	–	0.63243	–
c[Pra-Thr-Tyr-Tyr-Thr-Tyr-Az4] ([Pra]TYYTY[Lys(N3)]; triazole N-C) [EPP2]	–	0.46872	–
c[Pra-Tyr-Ser-Tyr-Tyr-Ser-Az4] ([Pra]YSYYS[Lys(N3)]; triazole N-C) [EPP6] [listing 1 of 2 here]	–	0.234	–
c[Pra-Tyr-Ser-Tyr-Tyr-Ser-Az4] ([Pra]YSYYS[Lys(N3)]; triazole N-C) [EPP6] [listing 2 of 2 here]	–	–	delivery of different fluorescent dye cargo molecules (U87 cells [2]; EPP6 conjugated to different dyes incl. AF555 and AF647, U87 cells): could bring all these cargo molecules into U87 cells; fluorescence intensity in the cells compared with TAT peptide (U87 cells [2]; RB tag, U87 cells, confocal imaging): ~2 ×; ability to enter the cells (intracellular fluorescence) (U87 cells [2]; U87 cells, confocal imaging): highest efficiency; concentration-dependent uptake (fluorescence signal) (U87 cells [2]; U87 cells, 20 nM to 100 μM): higher fluorescence signals across a wide range; uptake in different cell lines (different cell lines): able to enter a wide array of human cancer and noncancer cells, as well as non-human cells
c[Pra-Tyr-Thr-Tyr-Tyr-Thr-Az4] ([Pra]YTYYT[Lys(N3)]; triazole N-C) [EPP3]	–	0.11206	–
cy(TTTTT) [EPP5]	–	1.8954	–
cy(YYTYT) [EPP1]	–	0.16201	–
heparin	–	–	effect of heparin on RB-EPP6 uptake (U87 cells [4]): did not affect; also recorded: no inhibitory effect
methyl-β-cyclodextrin	did not inhibit	–	–
